Where “and” joins values, the source holds several entries; their conditions need not be identical. Identical values can stand only once.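 Cultured in 96-well plates, cells were exposed to test compound for 48 hours across five concentrations. GI50 is the concentration that inhibits growth by half. The concentration for full growth arrest is given as TGI.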
What was measured:
Assay in all cases: growth of human tumour cells (NCI), 48 h
ACHN renal = tested on: ACHN renal
DLD-1 colon = tested on: DLD-1 colon
IGROV1 ovarian = tested on: IGROV1 ovarian
KM20L2 colon = tested on: KM20L2 colon
M19-MEL melanoma = tested on: M19-MEL melanoma
MOLT-4 leukemia = tested on: MOLT-4 leukemia
NCI-H226 lung = tested on: NCI-H226 lung
RPMI-8226 leukemia = tested on: RPMI-8226 leukemia
SF-539 CNS = tested on: SF-539 CNS
SNB-75 CNS = tested on: SNB-75 CNS
SNB-78 CNS = tested on: SNB-78 CNS
XF 498 CNS = tested on: XF 498 CNS
HL-60(TB) leukemia = tested on: HL-60(TB) leukemia

SMILES | TGI (ACHN renal) | TGI (DLD-1 colon) | TGI (IGROV1 ovarian) | TGI (KM20L2 colon) | TGI (M19-MEL melanoma) | TGI (MOLT-4 leukemia) | TGI (NCI-H226 lung) | TGI (RPMI-8226 leukemia) | TGI (SF-539 CNS) | TGI (SNB-75 CNS) | TGI (SNB-78 CNS) | TGI (XF 498 CNS) | TGI (HL-60(TB) leukemia) | GI50 (IGROV1 ovarian) | GI50 (NCI-H226 lung) | GI50 (RPMI-8226 leukemia) | GI50 (ACHN renal) [µM] | GI50 (MOLT-4 leukemia) [µM] | GI50 (SNB-75 CNS) [µM]
CC(C)(CN1CCCCC1)C(=O)CC(SCCS(=O)(=O)O)c1ccc(Br)cc1 (centres undefined) | 3.1 µM | 5.73 µM | 4.56 µM | 3.53 µM | 5.05 µM | 7.62 µM | 8.75 µM | 4.66 µM | 3.96 µM | 6.16 µM | 77.7 µM | 2.07 µM | – | – | – | – | – | – | –
NC1=NS(=O)(=O)N=C(N)C1=Cc1ccc([N+](=O)[O-])o1 | 30.6 µM | 33.7 µM | 32.1 µM | 31.3 µM | 30 µM | 40.7 µM | 53.7 µM | 70 µM | 32.3 µM | 29.9 µM | 47.9 µM | 32.7 µM | > 100 µM | – | – | – | – | – | –
O=c1[nH]c(=O)n(C2CC(O)C(CO)O2)cc1C#Cc1ccc(C(F)(F)F)cc1 (centres undefined) | > 100 µM | > 100 µM | > 100 µM | > 100 µM | – | > 100 µM | > 100 µM | > 100 µM | > 100 µM | > 100 µM | – | > 100 µM | > 100 µM | – | – | – | – | – | –
O=C1CCC2(CCC(=O)NC2=O)C(=O)N1 | > 100 µM | – | > 100 µM | > 100 µM | > 100 µM | > 100 µM | > 100 µM | > 100 µM | > 100 µM | – | – | > 100 µM | > 100 µM | – | – | – | – | – | –
c1ccc(C2=NN3CN(N2)c2ccccc2OCCCOc2ccccc23)cc1 | > 100 µM | – | > 100 µM | > 100 µM | > 100 µM | > 100 µM | > 100 µM | > 100 µM | > 100 µM | > 100 µM | > 100 µM | > 100 µM | > 100 µM | – | – | – | – | – | –
Cc1nc2c(n1Cc1ccc(Cl)cc1)C(=O)c1ccccc1C2=O | > 75 µM | > 75 µM | > 75 µM | > 75 µM | > 75 µM | > 75 µM | > 75 µM | – | > 75 µM | > 75 µM | > 75 µM | > 75 µM | > 75 µM | – | – | – | – | – | –
Brc1ccc(N2C[N+](c3ccc(Br)cc3)=NC(c3ccccc3)=N2)cc1 | 26.4 µM and > 100 µM | 25.2 µM and > 100 µM | 29.1 µM and > 100 µM | 33.8 µM and > 100 µM | 29.7 µM and > 100 µM | 32.5 µM and > 100 µM | 44.4 µM and > 100 µM | 27.7 µM and > 100 µM | 29.8 µM and > 100 µM | 48.4 µM and > 100 µM | 70.6 µM and > 100 µM | 35.5 µM and > 100 µM | 35.2 µM and > 100 µM | – | – | – | – | – | –
C/C(=N\N(C)C)C(CN(C)C)C(c1ccccc1)c1c(O)c2ccccc2oc1=O (centres undefined) | > 100 µM | > 100 µM | > 100 µM | > 100 µM | – | > 100 µM | > 100 µM | > 100 µM | – | > 100 µM | > 100 µM | > 100 µM | > 100 µM | – | – | – | – | – | –
Cc1ccc(S(=O)(=O)Nn2c(-c3ccccc3)c(C#N)c(-c3ccc([N+](=O)[O-])cc3)c(C#N)c2=O)cc1 | > 100 µM | – | > 100 µM | – | – | > 100 µM | > 100 µM | 64.3 µM | > 100 µM | > 100 µM | – | – | > 100 µM | – | – | – | – | – | –
COC(=O)Cc1c(C2=Nc3ccccc3C2(O)CC(=O)OC)[nH]c2ccccc12 (centres undefined) | > 100 µM | – | > 100 µM | – | – | 71.2 µM | > 100 µM | > 100 µM | 85.5 µM | > 100 µM | – | – | 62.7 µM | – | – | – | – | – | –
O=C1c2ccccc2S(=O)(=O)c2ccccc21 | > 100 µM | – | > 100 µM | – | – | > 100 µM | > 100 µM | > 100 µM | > 100 µM | > 100 µM | – | – | > 100 µM | – | – | – | – | – | –
OC(CC(c1ccccc1)c1ccc(Cl)cc1)c1ccc(Cl)cc1 (centres undefined) | 77.6 µM | – | > 100 µM | – | – | > 100 µM | 97.5 µM | 70 µM | > 100 µM | 81.8 µM | – | – | 64.6 µM | – | – | – | – | – | –
CN(C)c1ccc(-c2nc(-c3cc4c(ccc5ccccc54)oc3=O)cs2)cc1 | > 100 µM | – | > 100 µM | – | – | > 100 µM | > 100 µM | > 100 µM | > 100 µM | > 100 µM | – | – | > 100 µM | – | – | – | – | – | –
CC(=O)N(C(C)=O)n1c(Cc2ccc(Cl)cc2)nn(C(C)=O)c1=O | > 100 µM | – | > 100 µM | – | – | > 100 µM | > 100 µM | > 100 µM | > 100 µM | > 100 µM | – | – | > 100 µM | – | – | – | – | – | –
COc1cc(C2SCC(=O)N2NC(=O)c2ccc(NC(C)=O)cc2)cc(OC)c1OC (centres undefined) | > 100 µM | – | > 100 µM | – | – | > 100 µM | > 100 µM | > 100 µM | > 100 µM | > 100 µM | – | – | > 100 µM | – | – | – | – | – | –
CCCCN(CCCC)C(=NCc1ccccc1)NC#N | 65.9 µM | 47 µM | 59.2 µM | 52.2 µM | 36.1 µM | – | 64.8 µM | 79.3 µM | 41.2 µM | 95.2 µM | 70.2 µM | – | 35.7 µM | – | – | – | – | – | –
CCCCCCCCCCCCCCCCP(=O)(O)OP(=O)(O)OCC1OC(n2ccc(N)nc2=O)C(O)C1O (centres undefined) | > 100 µM and 37.1 µM | – | > 100 µM | – | – | > 100 µM and 22.7 µM | > 100 µM and 78.9 µM | > 100 µM | 36.3 µM and 88.6 µM | 60.6 µM and 45.8 µM | – | – | > 100 µM | 62.4 µM and 26 µM | 64.5 µM and 21.6 µM | > 100 µM and 35.1 µM | – | – | –
CC1=NN(C(=O)CC(=O)Nc2cccc(Cl)c2)C(=O)C1N=Nc1ccc(S(N)(=O)=O)cc1 (centres undefined) | > 100 µM | > 100 µM | > 100 µM | > 100 µM | > 100 µM | > 100 µM | > 100 µM | > 100 µM | > 100 µM | > 100 µM | > 100 µM | > 100 µM | – | – | – | – | – | – | –
CC1=NN(c2ccc(C)cc2)C2(C1)SCC(=O)N2c1nc2ccccc2s1 (centres undefined) | > 100 µM | – | > 100 µM | – | – | 46.1 µM | 47 µM | 50.1 µM | 46.8 µM | 64.7 µM | – | – | 36.5 µM | – | – | – | – | – | –
CCOC(=O)c1cc(-c2ccc(OC)c(OC)c2)c[nH]1 | > 10 µM | – | > 10 µM | – | – | > 10 µM | > 10 µM | > 10 µM | > 10 µM | > 10 µM | – | – | > 10 µM | – | – | – | – | – | –
C=C[C@]1(C)CC[C@]2(C)C(CC[C@@]3(C)C2C[C@H](O)[C@H](O)[C@@]3(C)O)C1 (some centres undefined) | > 100 µM | – | > 100 µM | – | – | > 100 µM | > 100 µM | > 100 µM | > 100 µM | > 100 µM | – | – | > 100 µM | – | – | – | – | – | –
COc1ccccc1C(=O)c1c(N2CCCCC2)c(=O)c1=O | > 100 µM | – | > 100 µM | – | – | > 100 µM | > 100 µM | > 100 µM | > 100 µM | > 100 µM | – | – | > 100 µM | – | – | – | – | – | –
O=C(c1ccccc1F)c1c(NCc2ccccc2)c(=O)c1=O | > 100 µM | – | > 100 µM | – | – | > 100 µM | > 100 µM | > 100 µM | > 100 µM | > 100 µM | – | – | > 100 µM | – | – | – | – | – | –
Cc1cccc(NC(=O)CC(=O)N2N=C(N3c4ccccc4Sc4ccccc43)CC2c2ccccc2)c1 (centres undefined) | > 100 µM | – | > 100 µM | – | – | > 100 µM | > 100 µM | > 100 µM | > 100 µM | > 100 µM | – | – | > 100 µM | – | – | – | – | – | –
CC1=NN(c2nc(N)nc(/C(C#N)=C/c3ccncc3)n2)C(C)(C)C1 | > 100 µM | – | > 100 µM | – | – | > 100 µM | > 100 µM | > 100 µM | > 100 µM | > 100 µM | – | – | > 100 µM | – | – | – | – | – | –
Oc1ccc2ccccc2c1-c1nnc(CCCCCCCCc2nnc(-c3c(O)ccc4ccccc34)o2)o1 | 25 µM and > 55.3 µM | – | 25 µM and 98.6 µM | – | – | – | 29.6 µM | 25 µM and > 100 µM | 16.4 µM | 25 µM and > 100 µM | – | – | 2.5 µM | 11.6 µM | – | 3.56 µM | 1.28 | 0.0812 | 27.2
O=C(c1cccs1)N(C(=S)N1CCN(c2ccccc2)CC1)c1ccccc1 | > 100 µM | > 100 µM | > 100 µM | > 100 µM | > 100 µM | > 100 µM | > 100 µM | > 100 µM | > 100 µM | > 100 µM | > 100 µM | – | > 100 µM | – | – | – | – | – | –
